According to PubChem BioAssay AID1963436 (Molecular Pharmacology Branch, DTP, NCI, 2024):

Tested on: OVCAR-5 complex spheroid (HUVEC/MSC), viability % T/C
Experiment: Anticancer human tumor OVCAR-5 cell line growth inhibition [Asc];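 also: spheroids exposed to agents for 7 days before readout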;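 as to viability, T/C: 100% = DMSO vehicle-treated wells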
Conditions: for IC50: curve of first compound; for viability, T/C: stronger effect = lower value
Summary of the method: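 Stromal components (HUVEC and hMSC) are co-assembled with the cancer cells into multicellular spheroids. Drugs are then added singly or paired, at concentrations falling by half-log increments from a clinically achievable maximum, capped at 10 microM without known Cmax.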

[1] = second compound 0.03 µM, first compound 0.0316 µM
[2] = second compound 0.03 µM, first compound 0.1 µM
[3] = second compound 0.03 µM, first compound 0.316 µM
[4] = second compound 0.03 µM, first compound 1 µM
[5] = second compound 0.03 µM, first compound 3.16 µM
[6] = second compound 0.03 µM, first compound 10 µM
[7] = second compound 0.0949 µM, first compound 0.0316 µM
[8] = second compound 0.0949 µM, first compound 0.1 µM
[9] = second compound 0.0949 µM, first compound 0.316 µM
[10] = second compound 0.0949 µM, first compound 1 µM
[11] = second compound 0.0949 µM, first compound 3.16 µM
[12] = second compound 0.0949 µM, first compound 10 µM
[13] = second compound 0.3 µM, first compound 0.0316 µM
[14] = second compound 0.3 µM, first compound 0.1 µM
[15] = second compound 0.3 µM, first compound 0.316 µM
[16] = second compound 0.3 µM, first compound 1 µM
[17] = second compound 0.3 µM, first compound 3.16 µM
[18] = second compound 0.3 µM, first compound 10 µM
[19] = second compound 0.949 µM, first compound 0.0316 µM
[20] = second compound 0.949 µM, first compound 0.1 µM
[21] = second compound 0.949 µM, first compound 0.316 µM
[22] = second compound 0.949 µM, first compound 1 µM
[23] = second compound 0.949 µM, first compound 3.16 µM
[24] = second compound 0.949 µM, first compound 10 µM
[25] = second compound 3 µM, first compound 0.0316 µM
[26] = second compound 3 µM, first compound 0.1 µM
[27] = second compound 3 µM, first compound 0.316 µM
[28] = second compound 3 µM, first compound 1 µM
[29] = second compound 3 µM, first compound 3.16 µM
[30] = second compound 3 µM, first compound 10 µM
[31] = second compound 0.03 µM, first compound 0.00316 µM
[32] = second compound 0.03 µM, first compound 0.01 µM
[33] = second compound 0.0949 µM, first compound 0.00316 µM
[34] = second compound 0.0949 µM, first compound 0.01 µM
[35] = second compound 0.3 µM, first compound 0.00316 µM
[36] = second compound 0.3 µM, first compound 0.01 µM
[37] = second compound 0.949 µM, first compound 0.00316 µM
[38] = second compound 0.949 µM, first compound 0.01 µM
[39] = second compound 3 µM, first compound 0.00316 µM
[40] = second compound 3 µM, first compound 0.01 µM

| SMILES | IC50 (second compound 0.03 µM) | IC50 (second compound 0.0949 µM) | IC50 (second compound 0.3 µM) | IC50 (second compound 0.949 µM) | IC50 (second compound 3 µM) | viability, T/C [1] | viability, T/C [2] | viability, T/C [3] | viability, T/C [4] | viability, T/C [7] | viability, T/C [8] | viability, T/C [9] | viability, T/C [10] | viability, T/C [13] | viability, T/C [14] | viability, T/C [15] | viability, T/C [16] | viability, T/C [19] | viability, T/C [20] | viability, T/C [21] | further results |
| --- | --- | --- | --- | --- | --- | --- | --- | --- | --- | --- | --- | --- | --- | --- | --- | --- | --- | --- | --- | --- | --- |
| C#Cc1c(F)ccc2cc(O)cc(-c3ncc4c(N5CC6CCC(C5)N6)nc(OCC56CCCN5CC(F)C6)nc4c3F)c12 (stereo not given) + CCN1C(C(=O)NC23CCC(C(=O)O)(CC2)CC3)C(c2cccc(Cl)c2F)C2(C(=O)Nc3cc(Cl)ccc32)C12CCCCC2 | 6750 nM | 6760 nM | 6720 nM | 6510 nM | 5410 nM | 108% | 108% | 83.3% | 78% | 106% | 105% | 91.1% | 88.8% | 101% | 107% | 106% | 74.8% | 99% | 109% | 102% | viability, T/C [5]: 73%; viability, T/C [6]: 39.1%; viability, T/C [11]: 66.5%; viability, T/C [12]: 40.8%; viability, T/C [17]: 66.2%; viability, T/C [18]: 42.4%; viability, T/C [22]: 84.4%; viability, T/C [23]: 65.5%; viability, T/C [24]: 41.3%; viability, T/C [25]: 104%; viability, T/C [26]: 107%; viability, T/C [27]: 107%; viability, T/C [28]: 79.5%; viability, T/C [29]: 61.2%; viability, T/C [30]: 39.6% |
| C=C(F)C(=O)N1CCN(c2nc(OCC3CCCN3C)nc3c2CCN(c2cccc4cccc(Cl)c24)C3)CC1CC#N (stereo not given) + CCN1C(C(=O)NC23CCC(C(=O)O)(CC2)CC3)C(c2cccc(Cl)c2F)C2(C(=O)Nc3cc(Cl)ccc32)C12CCCCC2 | 1390 nM | 1260 nM | 1300 nM | 1280 nM | 1290 nM | 108% | 94.2% | 90.1% | 67.2% | 102% | 104% | 87.7% | 62.4% | 101% | 122% | 101% | 62.7% | 109% | 110% | 105% | viability, T/C [5]: 9.46%; viability, T/C [6]: 0.18%; viability, T/C [11]: 9.56%; viability, T/C [12]: 0.18%; viability, T/C [17]: 7.84%; viability, T/C [18]: 0.2%; viability, T/C [22]: 60.4%; viability, T/C [23]: 11.3%; viability, T/C [24]: 0.18%; viability, T/C [25]: 115%; viability, T/C [26]: 112%; viability, T/C [27]: 104%; viability, T/C [28]: 61.8%; viability, T/C [29]: 10.2%; viability, T/C [30]: 1.38% |
| C=CC(=O)N1CCN(c2nc(=O)n(-c3c(C)ccnc3C(C)C)c3nc(-c4c(O)cccc4F)c(F)cc23)C(C)C1 (stereo not given) + CCN1C(C(=O)NC23CCC(C(=O)O)(CC2)CC3)C(c2cccc(Cl)c2F)C2(C(=O)Nc3cc(Cl)ccc32)C12CCCCC2 | > 10000 nM | > 10000 nM | > 10000 nM | > 10000 nM | > 10000 nM | 112% | 111% | 120% | 125% | 110% | 111% | 106% | 112% | 105% | 119% | 112% | 121% | 109% | 118% | 102% | viability, T/C [5]: 113%; viability, T/C [6]: 104%; viability, T/C [11]: 116%; viability, T/C [12]: 92.1%; viability, T/C [17]: 118%; viability, T/C [18]: 116%; viability, T/C [22]: 103%; viability, T/C [23]: 109%; viability, T/C [24]: 106%; viability, T/C [25]: 116%; viability, T/C [26]: 118%; viability, T/C [27]: 122%; viability, T/C [28]: 111%; viability, T/C [29]: 111%; viability, T/C [30]: 111% |
| CNC(C)C(=O)NC1CN(S(=O)(=O)c2cccc(S(=O)(=O)N3CCC4CCC(C(=O)NC(c5ccccc5)c5ccccc5)N4C(=O)C(NC(=O)C(C)NC)C3)c2)CCC2CCC(C(=O)NC(c3ccccc3)c3ccccc3)N2C1=O (stereo not given) + CCN1C(C(=O)NC23CCC(C(=O)O)(CC2)CC3)C(c2cccc(Cl)c2F)C2(C(=O)Nc3cc(Cl)ccc32)C12CCCCC2 | > 1000 nM | > 1000 nM | > 1000 nM | > 1000 nM | > 1000 nM | 86.2% | 84.7% | 94.4% | 75% | 80.7% | 77.1% | 78.8% | 78.3% | 84.5% | 74.7% | 87.3% | 95.3% | 87.5% | 70.2% | 85.1% | viability, T/C [31]: 97.3%; viability, T/C [32]: 107%; viability, T/C [33]: 90.5%; viability, T/C [34]: 102%; viability, T/C [35]: 102%; viability, T/C [36]: 94%; viability, T/C [37]: 109%; viability, T/C [38]: 102%; viability, T/C [22]: 95%; viability, T/C [39]: 102%; viability, T/C [40]: 101%; viability, T/C [25]: 96.7%; viability, T/C [26]: 79.9%; viability, T/C [27]: 84.4%; viability, T/C [28]: 90.8% |
| COc1c(OCCCN2CCOCC2)ccc2c3n(c(=NC(=O)c4cnc(N)nc4)nc12)CCN3 + CCN1C(C(=O)NC23CCC(C(=O)O)(CC2)CC3)C(c2cccc(Cl)c2F)C2(C(=O)Nc3cc(Cl)ccc32)C12CCCCC2 | 36.4 nM | 29.5 nM | 44.4 nM | 38.1 nM | 34.1 nM | 49.8% | 29.9% | 20% | 11.9% | 46.3% | 28.1% | 17.8% | 9.62% | 56.6% | 31.1% | 17.8% | 10.5% | 54.8% | 24.8% | 17.3% | viability, T/C [31]: 82.4%; viability, T/C [32]: 79.6%; viability, T/C [33]: 91.6%; viability, T/C [34]: 75.8%; viability, T/C [35]: 87.8%; viability, T/C [36]: 82.3%; viability, T/C [37]: 79.4%; viability, T/C [38]: 75.1%; viability, T/C [22]: 8.43%; viability, T/C [39]: 89.7%; viability, T/C [40]: 83.9%; viability, T/C [25]: 51%; viability, T/C [26]: 22%; viability, T/C [27]: 15.2%; viability, T/C [28]: 8.71% |
